Test results published in ChEMBL document CHEMBL1201862, “PubChem BioAssay data set” (2004).
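Five concentrations, 48 hours, 96-well plates. At the GI50, growth is halved.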 Active and inactive are the calls of the source. No stated cut-off is given here; in the data, active = GI50 up to about 1.1 µM and inactive = higher.

How the values were obtained:
Assay in all cases: NCI anticancer screen, dose series, 48 h
ACHN = tested on: ACHN
HCT-116 = tested on: HCT-116
OVCAR-3 = tested on: OVCAR-3
XF498 = tested on: XF498
A498 = tested on: A498
NCI-H522 = tested on: NCI-H522
SF-539 = tested on: SF-539
HT-29 = tested on: HT-29
CAKI-1 = tested on: CAKI-1
NCI-H460 = tested on: NCI-H460
A549 = tested on: A549
SNB-19 = tested on: SNB-19
EKVX = tested on: EKVX
SK-MEL-2 = tested on: SK-MEL-2
SK-MEL-5 = tested on: SK-MEL-5
NCI-H226 = tested on: NCI-H226
HL-60 = tested on: HL-60
UACC-62 = tested on: UACC-62
SW-620 = tested on: SW-620
U-251 = tested on: U-251
K562 = tested on: K562
SK-MEL-28 = tested on: SK-MEL-28
KM-20L2 = tested on: KM-20L2
HOP-92 = tested on: HOP-92
COLO 205 = tested on: COLO 205
786-0 = tested on: 786-0
Malme-3M = tested on: Malme-3M
OVCAR-5 = tested on: OVCAR-5
DMS-273 = tested on: DMS-273
UO-31 = tested on: UO-31
SN12C = tested on: SN12C
SF-295 = tested on: SF-295
TK-10 = tested on: TK-10
IGROV-1 = tested on: IGROV-1
SK-OV-3 = tested on: SK-OV-3
HCT-15 = tested on: HCT-15
UACC-257 = tested on: UACC-257
HOP-62 = tested on: HOP-62
CCRF-CEM = tested on: CCRF-CEM
LOX IMVI = tested on: LOX IMVI
DLD-1 = tested on: DLD-1
NCI-H23 = tested on: NCI-H23
SF-268 = tested on: SF-268
OVCAR-4 = tested on: OVCAR-4
M14 = tested on: M14
RXF 393 = tested on: RXF 393
OVCAR-8 = tested on: OVCAR-8
SNB-75 = tested on: SNB-75
LXFL 529 = tested on: LXFL 529
SNB-78 = tested on: SNB-78
NCI/ADR-RES = tested on: NCI/ADR-RES
HCC 2998 = tested on: HCC 2998
MCF7 = tested on: MCF7
M19-MEL = tested on: M19-MEL
KM12 = tested on: KM12
MOLT-4 = tested on: MOLT-4
RPMI-8226 = tested on: RPMI-8226
DMS-114 = tested on: DMS-114

CC(=O)Nc1ccc(C(=O)NN2C(=O)C(Cl)C2c2ccccc2O)cc1 (stereo not drawn)
GI50 (ACHN): > 100 µM (inactive)
GI50 (HCT-116): > 100 µM (inactive)
GI50 (OVCAR-3): 3.26 µM (inactive)
GI50 (XF498): 28.1 µM (inactive)
GI50 (A498): > 100 µM (inactive)
GI50 (NCI-H522): 36.2 µM (inactive)
GI50 (SF-539): 42.1 µM (inactive)
GI50 (HT-29): 69 µM (inactive)
GI50 (CAKI-1): > 100 µM (inactive)
GI50 (NCI-H460): 6.81 µM (inactive)
GI50 (A549): > 100 µM (inactive)
GI50 (SNB-19): 36.6 µM (inactive)
GI50 (EKVX): 99.8 µM (inactive)
GI50 (SK-MEL-2): 15.7 µM (inactive)
GI50 (SK-MEL-5): > 100 µM (inactive)
GI50 (NCI-H226): > 100 µM (inactive)
GI50 (HL-60): 84.7 µM (inactive)
GI50 (UACC-62): 37.2 µM (inactive)
GI50 (SW-620): > 100 µM (inactive)
GI50 (U-251): 15.8 µM (inactive)
GI50 (K562): > 100 µM (inactive)
GI50 (SK-MEL-28): > 100 µM (inactive)
GI50 (KM-20L2): > 100 µM (inactive)
GI50 (HOP-92): 47.6 µM (inactive)
GI50 (COLO 205): 45.2 µM (inactive)
GI50 (786-0): 9.06 µM (inactive)
GI50 (Malme-3M): 82.2 µM (inactive)
GI50 (OVCAR-5): > 100 µM (inactive)
GI50 (DMS-273): 99.1 µM (inactive)
GI50 (UO-31): 34.4 µM (inactive)
GI50 (SN12C): > 100 µM (inactive)
GI50 (SF-295): 29.1 µM (inactive)
GI50 (TK-10): 51.4 µM (inactive)
GI50 (IGROV-1): > 100 µM (inactive)
GI50 (SK-OV-3): 12.9 µM (inactive)
GI50 (HCT-15): 3.36 µM
GI50 (UACC-257): > 100 µM (inactive)
GI50 (HOP-62): 14.2 µM (inactive)
GI50 (CCRF-CEM): 4.9 µM (inactive)
GI50 (LOX IMVI): 13.2 µM (inactive)
GI50 (DLD-1): > 100 µM (inactive)
GI50 (NCI-H23): 19.7 µM (inactive)
GI50 (SF-268): 84.7 µM (inactive)
GI50 (OVCAR-4): > 100 µM (inactive)
GI50 (M14): 23.8 µM (inactive)
GI50 (RXF 393): 24.1 µM (inactive)
GI50 (OVCAR-8): 42.2 µM (inactive)
GI50 (SNB-75): 36.8 µM (inactive)
GI50 (LXFL 529): > 100 µM (inactive)

Cc1cc(-c2ccc(/N=N/c3ccc4c(S(=O)(=O)O)cc(S(=O)(=O)O)c(N)c4c3O)c(C)c2)ccc1/N=N/c1ccc2c(S(=O)(=O)O)cc(S(=O)(=O)O)c(N)c2c1O [EVANS BLUE FREE ACID]
GI50 (OVCAR-3): > 100 µM (inactive)
GI50 (XF498): > 77.3 µM (inactive)
GI50 (A498): > 100 µM (inactive)
GI50 (NCI-H522): > 100 µM (inactive)
GI50 (SF-539): > 100 µM (inactive)
GI50 (SNB-78): > 85.7 µM (inactive)
GI50 (HT-29): > 100 µM (inactive)
GI50 (NCI-H460): > 100 µM (inactive)
GI50 (A549): > 100 µM (inactive)
GI50 (EKVX): > 100 µM (inactive)
GI50 (SK-MEL-2): > 100 µM (inactive)
GI50 (NCI-H226): > 76.2 µM (inactive)
GI50 (HL-60): > 100 µM (inactive)
GI50 (SW-620): > 100 µM (inactive)
GI50 (U-251): > 100 µM (inactive)
GI50 (K562): > 100 µM (inactive)
GI50 (SK-MEL-28): > 100 µM (inactive)
GI50 (KM-20L2): > 100 µM (inactive)
GI50 (NCI/ADR-RES): > 100 µM (inactive)
GI50 (HCC 2998): > 100 µM (inactive)
GI50 (OVCAR-5): > 100 µM (inactive)
GI50 (MCF7): > 100 µM (inactive)
GI50 (DMS-273): > 100 µM (inactive)
GI50 (UO-31): 62.7 µM (inactive)
GI50 (SN12C): > 100 µM (inactive)
GI50 (SF-295): > 100 µM (inactive)
GI50 (SK-OV-3): > 100 µM (inactive)
GI50 (HCT-15): > 100 µM
GI50 (UACC-257): > 100 µM (inactive)
GI50 (NCI-H23): > 100 µM (inactive)
GI50 (SF-268): > 100 µM (inactive)
GI50 (OVCAR-4): 59.2 µM (inactive)
GI50 (RXF 393): > 95.5 µM (inactive)
GI50 (M19-MEL): > 100 µM (inactive)
GI50 (OVCAR-8): > 100 µM (inactive)
GI50 (SNB-75): 77.3 µM (inactive)

C[C@]12CC(C#N)C(=O)C(O)=C1CC[C@@H]1C2CC[C@@]2(C)C1CC[C@@H]2O (stereo partly drawn)
GI50 (ACHN): 47.2 µM (inactive)
GI50 (KM12): > 100 µM (inactive)
GI50 (HCT-116): 41.1 µM (inactive)
GI50 (OVCAR-3): 65.5 µM (inactive)
GI50 (XF498): 18.8 µM (inactive)
GI50 (A498): 3.86 µM (inactive)
GI50 (SF-539): 46.1 µM (inactive)
GI50 (SNB-78): 65.3 µM (inactive)
GI50 (HT-29): > 100 µM (inactive)
GI50 (MOLT-4): 40.7 µM (inactive)
GI50 (NCI-H460): 41.8 µM (inactive)
GI50 (A549): 47.5 µM (inactive)
GI50 (SNB-19): 83.4 µM (inactive)
GI50 (EKVX): 34.8 µM (inactive)
GI50 (SK-MEL-2): 51.8 µM (inactive)
GI50 (SK-MEL-5): 26.3 µM (inactive)
GI50 (NCI-H226): 27.6 µM (inactive)
GI50 (HL-60): 13.8 µM (inactive)
GI50 (UACC-62): 3.99 µM (inactive)
GI50 (SW-620): > 100 µM (inactive)
GI50 (U-251): > 100 µM (inactive)
GI50 (K562): 46.9 µM (inactive)
GI50 (SK-MEL-28): 40.9 µM (inactive)
GI50 (KM-20L2): 95.5 µM (inactive)
GI50 (HOP-92): 10.7 µM (inactive)
GI50 (COLO 205): 48.5 µM (inactive)
GI50 (786-0): 22.9 µM (inactive)
GI50 (Malme-3M): 31.1 µM (inactive)
GI50 (HCC 2998): > 100 µM (inactive)
GI50 (OVCAR-5): 27.3 µM (inactive)
GI50 (DMS-273): 17.3 µM (inactive)
GI50 (UO-31): 10.1 µM (inactive)
GI50 (SN12C): 60 µM (inactive)
GI50 (SF-295): > 100 µM (inactive)
GI50 (TK-10): 27.1 µM (inactive)
GI50 (IGROV-1): 12.2 µM (inactive)
GI50 (RPMI-8226): 7 µM (inactive)
GI50 (SK-OV-3): 33.2 µM (inactive)
GI50 (HCT-15): 48.6 µM
GI50 (UACC-257): 71.1 µM (inactive)
GI50 (HOP-62): 80.4 µM (inactive)
GI50 (CCRF-CEM): 45.1 µM (inactive)
GI50 (LOX IMVI): 27.4 µM (inactive)
GI50 (DLD-1): 58.3 µM (inactive)
GI50 (NCI-H23): 35.6 µM (inactive)
GI50 (DMS-114): 49 µM (inactive)
GI50 (SF-268): 41.7 µM (inactive)
GI50 (OVCAR-4): 48.5 µM (inactive)
GI50 (M14): 65.5 µM (inactive)
GI50 (RXF 393): 19.1 µM (inactive)
GI50 (OVCAR-8): > 100 µM (inactive)
GI50 (SNB-75): 9.91 µM (inactive)
GI50 (LXFL 529): 65.5 µM (inactive)
